Common to all, as to assay type: cell-based
Test [1] has as its system mutant ERα (Y537S, D538G, L536R). The test can be described thus: Inhibition of mutant ERα-mediated transcription. The following applies: MCF-7 cells, 100 nM, 24 hours.
Test [2] concerns MCF-7 cells expressing doxycycline-inducible WT ERα. The test can be described thus: Inhibition of MCF-7 cell proliferation driven by WT ERα. The following applies: Homo sapiens, MCF7, 120 h, read-out: Inhibition of Proliferation IC50 (nM ± SD).
For test [3], the system named is MCF-7 cells expressing doxycycline-inducible L536R mutant ERα. The test can be described thus: Inhibition of MCF-7 cell proliferation driven by L536R mutant ERα. The following applies: Homo sapiens, MCF7, 120 h, read-out: Inhibition of Proliferation IC50 (nM ± SD).
The test system of test [4] is MCF-7 cells expressing doxycycline-inducible Y537S mutant ERα. The test can be described thus: cells. The following applies: Homo sapiens, MCF7, 120 h, read-out: Inhibition of Proliferation IC50 (nM ± SD).
Test [5] relates to MCF-7 cells expressing doxycycline-inducible D538G mutant ERα. In words: Inhibition of MCF-7 cell proliferation driven by D538G mutant ERα. The following applies: Homo sapiens, MCF7, 120 h, read-out: Inhibition of Proliferation IC50 (nM ± SD).

`C[C@]12C[C@H](c3ccc(OCCCCCS(=O)(=O)CCCC(F)(F)C(F)(F)F)cc3)[C@@H]3c4ccc(O)cc4CC[C@H]3[C@@H]1CC[C@@H]2O` [RU58668]: the “inhibition of mutant ER transcriptional activity (in words)” value in test [1] is reported as “block much of the activity of all three mutants”.

For the compound `C[C@]12CC[C@@H]3c4ccc(O)cc4C[C@@H](CCCCCCCCC[S+]([O-])CCCC(F)(F)C(F)(F)F)[C@H]3[C@@H]1CC[C@@H]2O` (some centres unmarked) [fulvestrant], the IC50 was found to be 0.31 ± 0.03 nM in test [2], 2.6 ± 0.4 nM in test [3], 16 ± 1.8 nM in test [4] and 5.9 ± 0.6 nM in test [5].

The values above are taken from PMC6469989 (ACS chemical biology, 2018).
